From patent US20240108632A1, “PHARMACEUTICAL COMPOSITION FOR ADMINISTRATION AS OPHTHALMIC DROP TO PATIENT REQUIRING OPTIC NERVE PROTECTION” (PINOTBIO, INC., priority 2020, published 2024)
≈ marks a conversion by molar mass, not a printed value. Where “and” joins values, the source holds several entries; their conditions need not be identical. Identical values can stand only once.

Legend:
[1] = test system: New Zealand White rabbit ocular hypertension model animals; assay: IOP-lowering efficacy in rabbit ocular hypertension model (scleral vein ligation); type: in vivo
Experimental: This study was conducted in male New Zealand White rabbit ocular hypertension model animals (intraocular pressure ≥17 mmHg) induced by scleral vein ligation to determine the effectiveness of KR-67607 eye drops in reducing ocular hypertension after repeated twice daily ophthalmic administration for 11 days.
Sterile physiological saline (negative control), Xalatan, Timoptic, Trusopt, Xalacom, and KR-67607 eye drops were administered twice daily for 11 days, and mortality and general symptoms were monitored, body weight was measured, feed intake was measured, and intraocular pressure was measured.

[2] = Solubility as a function of HP-β-CD concentration, without pH adjustment (purified water); type: physicochemical; details: no pH adjustment
Experimental: Various concentrations of HP-β-CD aqueous solutions were prepared by adding appropriate amounts of HP-β-CD at 0.5%, 1%, 2%, 3%, 4%, and 5% (w/v) in tertiary purified water. An excess of KR-67607 was added to the above HP-β-CD solution and stirred for 24 hours, then the supernatant was collected, filtered through a 0.2 μm PVDF filter, and 1 mL was added to a 10 mL volumetric flask and labeled with methanol.
The standard was 50 mg of KR-67607 accurately weighed and placed in a 50 mL volumetric flask and completely dissolved/stained with methanol. 1, 2, 4, 6, 8, 10 mL of the standard was accurately taken and placed in a 20 mL volumetric flask, and the one labeled with methanol was used as the standard.
The UV analysis conditions are as follows • Wavelength: 255 nm • Cell: 10 mm Quartz cell
KR-67607 concentration (μg/mL)=(UV absorbance of the sample−y-intercept of the standard curve)/(slope of the standard curve)×dilution factor of the sample. [Formula]

[3] = test system: cynomolgus macaque model of glaucoma; assay: Funduscopy in cynomolgus macaque model of glaucoma; type: in vivo
Experimental: (§1) Three weeks before the first laser trabeculoplasty, IOP was measured via a tomometer (SPHPR-320-61), once per week for three weeks. The first laser trabeculoplasty was performed in one eye for each macaque. Two weeks later, laser trabeculoplasty was repeated in the same eye (Week 0).
(§2) One week after the second laser trabeculoplasty (Week 1), IOP was measured and retinal nerve fiber layer (RNFL) thickness was measured via optical coherence tomography (OCT; RS3000 Advance, Nidek Co. Ltd., Gamagoori, Japan) (SPHPR- 320-58). The day after group assignment, the eyes were instilled with either vehicle, KR-67607 or brimonidine twice a day. On Day 1, the effect of treatment on IOP over time was measured before treatment and 1, 2, 4, and 8 hrs. after instillation. At the same time, blood samples were obtained. From the effects of dosing observed on Day 1, it was determined that 2 hrs. was a reasonable time time-to-test following instillation for subsequent observations.
(§3) Intraocular pressures were obtained at Weeks 2, 3, 4, 5, 7 and 9. Optical coherence tomography and color fundus photography (CFP) were performed at Weeks 1, 3, 5, 7, and 9 (SPHPR-320-56).

[4] = test system: cynomolgus macaque model of glaucoma; assay: Retinal nerve fiber layer thickness by OCT in cynomolgus macaque model of glaucoma; type: in vivo
Experimental: as §1, §2, §3

[5] = Solubility by HP-β-CD concentration at pH adjustment; type: physicochemical
Experimental: Various concentrations of HP-β-CD aqueous solutions were prepared by adding 1%, 2%, 3%, and 4% (w/v) of HP-β-CD to tertiary purified water (pH 5.5), pH 7.4 phosphate buffer, and 0.04 M NaOH aqueous solution (pH 12.5). An excess of KR-67607 was added to the above HP-β-CD solution and stirred for 24 hours, then the supernatant was collected and filtered through a 0.2 μm PVDF filter, and 1 mL was added to a 10 mL volumetric flask and labeled with methanol.
For the standard solution, 50 mg of KR-67607 was accurately weighed and placed in a 50 mL volumetric flask and completely dissolved/stained with methanol. 1, 2, 4, 6, 8, 10 mL of the standard solution was accurately taken and placed in a 20 mL volumetric flask, and the one labeled with methanol was used as the standard.

[6] = Appearance of HP-β-CD solutions of KR-67607 prepared at various pH; type: physicochemical; details: solution before entrapment under alkaline conditions; 3% HP-β-CD, 0.15% KR-67607
Experimental: HP-β-CD aqueous solutions of various pH were prepared by adding 3% (w/v) appropriate amount of HP-β-CD to 0.08M NaOH aqueous solution, tertiary purified water, and 1M HCl aqueous solution. To each of the above different HP-β-CD solutions, 0.15% (w/v) KR-67607 was added and stirred for 1 hour, and then potassium dihydrogen phosphate, sodium chloride, and povidone K90 were mixed to a concentration of 0.68%, 0.435%, and 1.2% (w/v), respectively, to dissolve completely. The pH of the solution was adjusted to around 7.4 with 0.1 N HCl or 0.1 N NaOH aqueous solution, and then the total volume was adjusted by adding sterile purified water. The prepared solution was filtered through a 0.2 μm PVDF filter and evaluated for comparative appearance against a black background, and the results are shown in FIG. 5.

11β-HSD1 = 11β-HSD1 (Homo sapiens, UniProt P28845); details: known; cited from earlier work
Sequence of 11β-HSD1 (P28845 whole entry, species assumed): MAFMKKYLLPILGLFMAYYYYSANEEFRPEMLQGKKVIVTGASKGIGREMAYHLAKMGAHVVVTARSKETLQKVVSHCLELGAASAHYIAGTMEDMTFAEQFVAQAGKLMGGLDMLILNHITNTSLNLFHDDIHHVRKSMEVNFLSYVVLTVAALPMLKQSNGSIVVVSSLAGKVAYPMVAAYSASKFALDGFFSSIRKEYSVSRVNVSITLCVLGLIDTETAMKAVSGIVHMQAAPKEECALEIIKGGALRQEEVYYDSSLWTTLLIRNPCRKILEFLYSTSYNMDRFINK

DBA/2 mice = assay: Intraocular pressure in ocular hypertensive glaucoma mouse model; type: in vivo; details: for IOP reduced compared to control group: week 16, 20 μl both eyes twice daily
Experimental: In this study, we evaluated the efficacy of KR-67607 in a mouse model of glaucoma using DBA/2 mice, which are congenitally predisposed to persistently elevated intraocular pressure (FIG. 9).
IOP was measured after the acclimatization period and then every 4 weeks. IOP was measured in respiratory anesthetized mice according to the manufacturer's instructions and the mean value presented after six measurements was recorded.

CC1CN(CC(=O)NC2C3CC4CC2CC(C(N)=O)(C4)C3)S(=O)(=O)N(c2c(Cl)cc(C(F)(F)F)cc2Cl)C1 [KR-67607, (1s, 3R,4s,5S,7s)-4-(2-(6-(2,6-dichloro-4-(trifluoromethyl)phenyl)-4-methyl-1,1-dioxido-1,2,6-thiadiazinan-2-yl)acetamido)adamantane-1-carboxamide]
IOP reduction greater than in the negative control group ([1]; Day 5): 34.4%
IOP reduction greater than in the negative control group ([1]; Day 8): 45.5%
IOP compared to 100% of pre-dose IOP ([1]; day 5, twice daily ophthalmic administration): 49.0% and 60.1%
greater IOP reduction than the Xalacom treatment group ([1]; day 8): 3.6%
the solubility of KR-67607 ([2]; HP-β-CD 0.5 % w/v in purified water): 1200 µg/mL
the solubility of KR-67607 ([2]; HP-β-CD 1.0 % w/v in purified water): 2550 µg/mL
the solubility of KR-67607 ([2]; HP-β-CD 2.0 % w/v in purified water): 4230 µg/mL
the solubility of KR-67607 ([2]; HP-β-CD 3.0 % w/v in purified water): 6000 µg/mL
the solubility of KR-67607 ([2]; HP-β-CD 4.0 % w/v in purified water): 6910 µg/mL
the solubility of KR-67607 ([2]; HP-β-CD 5.0 % w/v in purified water): 7250 µg/mL
animals with small optic discs compared to G1 in the glaucomatous eyes ([3]; Week 5): four of six animals
animals with a small or lesser degree of cupping ([3]; Week 9): three animals
RNFL thickness compared with vehicle treatment ([4]; 5 weeks, unpaired t-test, p<0.05): greater
number of eyes with RNFL thickness greater than 50% compared to baseline ([4]; Week 9, 6 eyes per group): 3
RNFL thinning in glaucomatous eyes ([4]; repeated treatment, compared to vehicle-treated (G1)): significantly inhibited
inhibitory effect on RNFL thinning relative to brimonidine ([4]; summary): greater than that of brimonidine
Solubility by HP-β-CD concentration ([5]; HP-β-CD 1.0 % w/v, 0.04M NaOH aqueous solution (pH 12.5)): 3160 µg/mL (≈ 5.29 mM)
Solubility by HP-β-CD concentration ([5]; HP-β-CD 1.0 % w/v, phosphate buffer (pH 7.4)): 2590 µg/mL (≈ 4.33 mM)
Solubility by HP-β-CD concentration ([5]; HP-β-CD 1.0 % w/v, purified water (pH 5.5)): 2550 µg/mL (≈ 4.27 mM)
Solubility by HP-β-CD concentration ([5]; HP-β-CD 2.0 % w/v, 0.04M NaOH aqueous solution (pH 12.5)): 5720 µg/mL (≈ 9.57 mM)
Solubility by HP-β-CD concentration ([5]; HP-β-CD 2.0 % w/v, phosphate buffer (pH 7.4)): 4290 µg/mL (≈ 7.18 mM)
Solubility by HP-β-CD concentration ([5]; HP-β-CD 2.0 % w/v, purified water (pH 5.5)): 4230 µg/mL (≈ 7.08 mM)
Solubility by HP-β-CD concentration ([5]; HP-β-CD 3.0 % w/v, 0.04M NaOH aqueous solution (pH 12.5)): 7900 µg/mL (≈ 13.2 mM)
Solubility by HP-β-CD concentration ([5]; HP-β-CD 3.0 % w/v, phosphate buffer (pH 7.4)): 6000 µg/mL (≈ 10 mM)
Solubility by HP-β-CD concentration ([5]; HP-β-CD 3.0 % w/v, purified water (pH 5.5)): 6000 µg/mL (≈ 10 mM)
Solubility by HP-β-CD concentration ([5]; HP-β-CD 4.0 % w/v, 0.04M NaOH aqueous solution (pH 12.5)): 9610 µg/mL (≈ 16.1 mM)
Solubility by HP-β-CD concentration ([5]; HP-β-CD 4.0 % w/v, phosphate buffer (pH 7.4)): 6790 µg/mL (≈ 11.4 mM)
Solubility by HP-β-CD concentration ([5]; HP-β-CD 4.0 % w/v, purified water (pH 5.5)): 6910 µg/mL (≈ 11.6 mM)
entrapment ability of HP-β-CD for KR-67607 (appearance, FIG. 5) [6]: enhanced
inhibitory activity against 11β-HSD1 (11β-HSD1): good inhibitory activity
week from which significant IOP reduction was seen (DBA/2 mice; high dose KR-67607 (1.5 mg/ml)): 4 week
week from which IOP-lowering effects were observed (DBA/2 mice; low-dose KR-67607 (0.75 mg/ml)): 12 week
IOP reduced compared to control group (DBA/2 mice; high-dose KR-67607 (1.5 mg/ml)): 26%
IOP reduced compared to control group (DBA/2 mice; low concentration KR-67607 (0.75 mg/ml)): 16%
